Test results from ChEMBL document CHEMBL5543130, “Design, Synthesis, and In Vivo Evaluation of Isosteviol Derivatives as New SIRT3 Activators with Highly Potent Cardioprotective Effects” (J Med Chem, 2024).
Converted amounts (≈) assume the structure as drawn. The source made the active and inactive calls. The rule behind the calls is not given here.

Key:
Danio rerio [1] = test: Cardioprotective activity against doxorubicin-induced Zebrafish cardiomyopathy model assessed as survival rate at 5 uM fertilized for 24 hrs followed by compound administration for 72 hrs and measured at 96 hrs post fertilization by inverted fluorescence microscopic analysis; type: functional; conditions: Danio rerio
Danio rerio [2] = test: Cardioprotective activity against doxorubicin-induced Zebrafish cardiomyopathy model assessed as survival rate at 15 uM fertilized for 24 hrs followed by compound administration for 72 hrs and measured at 96 hrs post fertilization by inverted fluorescence microscopic analysis; type: functional
Danio rerio [3] = test: Cardioprotective activity against doxorubicin-induced Zebrafish cardiomyopathy model at 5 to 15 uM fertilized for 24 hrs followed by compound administration for 72 hrs and measured at 96 hrs post fertilization by inverted fluorescence microscopic analysis; type: functional, organism-based; conditions: dose 5-15 µM
Danio rerio [4] = test: Cardioprotective activity against doxorubicin-induced Zebrafish cardiomyopathy model assessed as survival rate at 5 to 15 uM fertilized for 24 hrs followed by compound administration for 72 hrs and measured at 96 hrs post fertilization by inverted fluorescence microscopic analysis; type: functional; conditions: dose 5-15 µM
[5] = Water solubility of the compound measured for 24 hrs by HPLC analysis; type: physicochemical
[6] = Toxicity in zebrafish embryos assessed as survival at upto 40 uM fertilized for 24 hrs followed by compound administration for 72 hrs and measured at 96 hrs post fertilization; set-up: species or system Danio rerio; conditions: in vivo
Danio rerio [7] = test: Cardioprotective activity against doxorubicin-induced Zebrafish cardiomyopathy model assessed as survival rate at 1 uM fertilized for 24 hrs followed by compound administration for 72 hrs and measured at 96 hrs post fertilization by inverted fluorescence microscopic analysis; type: functional
Danio rerio [8] = organism: Danio rerio; test: Cardioprotective activity against doxorubicin-induced Tg(cmlc2: GFP) Zebrafish assessed as reduction in cTnT mRNA level measured at 72 hrs post fertilization by qPCR analysis; type: functional, organism-based; conditions: dose <= 5.0 µM
Danio rerio [9] = organism: Danio rerio; test: Cardioprotective activity against doxorubicin-induced Tg(cmlc2: GFP) Zebrafish assessed as reduction in Anp mRNA level measured at 72 hrs post fertilization by qPCR analysis; type: functional, organism-based; conditions: dose <= 5.0 µM
Danio rerio [10] = organism: Danio rerio; test: Cardioprotective activity against doxorubicin-induced Tg(cmlc2: GFP) Zebrafish assessed as restoration of normal heart structure at 1 uM measured at 72 hrs post fertilization; type: functional, organism-based
Danio rerio [11] = test: Cardioprotective activity against doxorubicin-induced Tg(cmlc2: GFP) Zebrafish assessed as […] at 1 uM measured at 72 hrs post fertilization; type: functional, organism-based
Danio rerio [12] = organism: Danio rerio; test: Cardioprotective activity against doxorubicin-induced Tg(cmlc2: GFP) Zebrafish assessed as reduction in Bnp mRNA level measured at 72 hrs post fertilization by qPCR analysis; type: functional, organism-based

## C[C@@]12CC[C@@H]3[C@@](CC[C@H]4[C@@]3(C)CCC[C@@]4(C)C(=O)N3CCN(C(=O)CCC(=O)O)CC3)(CC1=O)C2
Danio rerio [1]
  survival at 5 µM: 50%
Danio rerio [2]
  survival at 15 µM: 50%
Danio rerio [3]
  Activity: Active

## COc1cccc(C(=O)N2CCN(C(=O)[C@]3(C)CCC[C@@]4(C)[C@@H]5CC[C@@]6(C)C[C@]5(CC[C@@H]43)CC6=O)CC2)c1OC
Danio rerio [4]
  Survival: 86%

## CC(C)(CC(=O)O)C(=O)N1CCN(C(=O)[C@]2(C)CCC[C@@]3(C)[C@@H]4CC[C@@]5(C)C[C@]4(CC[C@@H]32)CC5=O)CC1
Danio rerio [3]
  Activity: Active

## C[C@@]12CC[C@@H]3[C@@](CC[C@H]4[C@@]3(C)CCC[C@@]4(C)C(=O)N3CCN(C(=O)c4ccccc4C(=O)O)CC3)(CC1=O)C2
Danio rerio [1]
  survival at 5 µM: 50%
[5]
  solubility at 24 h: 940 µg/mL (≈ 1760 µM)
[6]
  Activity: Non-Toxic
Danio rerio [4]
  Survival: 50%

## C[C@@]12CC[C@@H]3[C@@](CC[C@H]4[C@@]3(C)CCC[C@@]4(C)C(=O)N3CCN(C(=O)COCC(=O)O)CC3)(CC1=O)C2
Danio rerio [3]
  Activity: Active

## Cc1ccc(C(=O)O)c(C(=O)N2CCN(C(=O)[C@]3(C)CCC[C@@]4(C)[C@@H]5CC[C@@]6(C)C[C@]5(CC[C@@H]43)CC6=O)CC2)c1
Danio rerio [7]
  survival at 1 µM: 90%
Danio rerio [8]
  Activity: Dose-Dependent Effect
[6]
  Activity: Non-Toxic
Danio rerio [9]
  Activity: Dose-Dependent Effect
Danio rerio [10]
  Activity: Active
Danio rerio [11]
  Activity: Active
Danio rerio [12]
  Activity: Dose-Dependent Effect

## C[C@@]12CC[C@@H]3[C@@](CC[C@H]4[C@@]3(C)CCC[C@@]4(C)C(=O)N3CCN(C(=O)CCCC(=O)O)CC3)(CC1=O)C2
Danio rerio [3]
  Activity: Active
